In brackets after ≈: the same amount, converted by molar mass.
Tests used:
[1] = Solubility in 0.3 M acetate buffer at pH 5 relative to naltrexone; format: physicochemical
[2] = Solubility in 0.3 M acetate buffer at pH 5; format: physicochemical

Row | SMILES | Ratio [1] | solubility thermodynamic [2]
1 | O=C(NCCOCCOCCO)Oc1ccc2c3c1O[C@H]1C(=O)CC[C@@]4(O)[C@@H](C2)N(CC2CC2)CC[C@]314 | 3.06 | 1040 mM (≈ 535 mg/mL)
2 | O=C(CCOCCOCCO)Oc1ccc2c3c1O[C@H]1C(=O)CC[C@@]4(O)[C@@H](C2)N(CC2CC2)CC[C@]314 | 1.86 | 629 mM (≈ 315 mg/mL)
3 | COCCOCCOCCC(=O)Oc1ccc2c3c1O[C@H]1C(=O)CC[C@@]4(O)[C@@H](C2)N(CC2CC2)CC[C@]314 | 2.81 | 952 mM (≈ 491 mg/mL)
4 | O=C1CC[C@@]2(O)[C@H]3Cc4ccc(O)c5c4[C@@]2(CCN3CC2CC2)[C@H]1O5 [NALTREXONE] | – | 338 mM (≈ 115 mg/mL)
5 | COCCOCCOCCNC(=O)Oc1ccc2c3c1O[C@H]1C(=O)CC[C@@]4(O)[C@@H](C2)N(CC2CC2)CC[C@]314 | 2.35 | 796 mM (≈ 422 mg/mL)
